Legend:
[1] = system: protein tyrosine phosphatases in WGA eluates; settings: 1 mM in the buffers
Procedure: The procedure was modified by decreasing the length of autoradiographic exposure to increase sensitivity. ^32 P-poly Glu:Tyr4:1 substrate was incorporated into the 100% SDS polyacrylamide gel prior to polymerization. WGA eluates which were run on the gels were concentrated on Centricon filters to approximately 2 mg/ml. Aliquots (100 μg) were run on the gels. Gels were washed overnight to remove SDS. The proteins were first fully denatured in 6M guanidine HCl and then, after electrophoresis, renatured by incubation in phosphatase assay buffers containing 0.04% Tween® 40 and high concentrations of dithiothreitol (DTT). Next, the gels were dried and exposed to Kodak X-Omat x-ray film at -70° C. for various times. […] In some experiments, concentrated WGA eluates were treated with the antibody anti-PTPase 1B (5 g) prior to assaying phosphatase activity. The antibody was added to 50 μl concentrated eluate and the sample was incubated for 1 h on a tube vortexer at room temperature. Fifty μl of 50% protein A Agarose were centrifuged in a separate tube at 14,000 g for 30 sec. The supernatant was removed, and at the end of 1 h, the WGA eluate was introduced to the agarose precipitate and vortexing was continued for an additional 30 min. As a control, WGA eluates that were not treated with antibody were also introduced to the gels. […]

[2] = target: T1, human A1 adenosine receptor (Homo sapiens, UniProt P30542); assay: Binding constants against cloned and expressed human adenosine receptor subtypes (A1); settings: read-out: Binding constant (KD) A1
T1 construct: expressed in transfected cells
T1 sequence (P30542 1-326): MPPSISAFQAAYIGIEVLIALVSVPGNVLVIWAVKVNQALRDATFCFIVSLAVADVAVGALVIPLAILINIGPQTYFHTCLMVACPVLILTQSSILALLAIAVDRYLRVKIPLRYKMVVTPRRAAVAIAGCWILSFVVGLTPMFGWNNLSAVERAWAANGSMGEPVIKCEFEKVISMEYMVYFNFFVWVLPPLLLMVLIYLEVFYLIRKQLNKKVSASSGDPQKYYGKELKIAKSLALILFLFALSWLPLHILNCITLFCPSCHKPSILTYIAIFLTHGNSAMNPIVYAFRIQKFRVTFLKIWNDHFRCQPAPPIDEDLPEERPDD

For sodium vanadate, the “PTPase bands in in-gel assay” value [1] was “Bands disappeared”.
Molecule CCCn1c(=O)[nH]c(=O)c2[nH]cnc21 [Enprofylline, 3-n-propylxanthine] has a Kd [2] of 156 µM.
